Literature values in patent US20220133691A1, “LASOFOXIFENE TREATMENT OF VVA AND OSTEOPOROSIS IN SURVIVORS OF BREAST CANCER AND OTHER MALIGNANCIES” (Sermonix Pharmaceuticals, Inc., priority 2016, published 2022).

Test system: post-menopausal women with osteoporosis
Details: PEARL trial

For `Oc1ccc2c(c1)CC[C@H](c1ccccc1)[C@@H]2c1ccc(OCCN2CCCC2)cc1` [lasofoxifene], the risk of osteoporosis (Cummings et al., NEJM 2010) is given as “reduce the risk of osteoporosis” and the “risk of breast cancer” value (post-menopausal women with osteoporosis, LaCroix et al., JNCI 2010) is given as “reduced the risk of breast cancer”.
